Test results published in US10081616B2, “Soluble epoxide hydrolase inhibitors and uses thereof” (X-Chem, Inc., priority 2014, dated 2018).

Biological target: T1, sEH (Homo sapiens, UniProt P34913)
T1 construct: purchased Cayman Chemical 10011669
T1 sequence (P34913 1-555): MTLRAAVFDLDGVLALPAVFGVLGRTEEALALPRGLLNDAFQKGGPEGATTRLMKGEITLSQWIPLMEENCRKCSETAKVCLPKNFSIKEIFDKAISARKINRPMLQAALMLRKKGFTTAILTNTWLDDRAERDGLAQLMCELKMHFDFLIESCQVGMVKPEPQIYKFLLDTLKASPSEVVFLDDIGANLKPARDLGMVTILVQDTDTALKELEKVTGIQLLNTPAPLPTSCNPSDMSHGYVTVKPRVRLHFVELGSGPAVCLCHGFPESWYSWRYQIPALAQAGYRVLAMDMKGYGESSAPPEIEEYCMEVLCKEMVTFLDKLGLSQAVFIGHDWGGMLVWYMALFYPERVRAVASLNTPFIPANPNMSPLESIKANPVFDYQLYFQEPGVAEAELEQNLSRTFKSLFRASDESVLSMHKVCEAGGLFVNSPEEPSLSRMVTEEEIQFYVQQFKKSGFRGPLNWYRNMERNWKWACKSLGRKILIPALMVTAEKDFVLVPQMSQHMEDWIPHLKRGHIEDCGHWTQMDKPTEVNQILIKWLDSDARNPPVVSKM
Experiment: sEH inhibition assay (Epoxy Fluor 7 substrate, fluorescence)
Assay type: biochemical
Settings: enzyme 3 nM, 15 min pre-incubation at room temperature, read at 30° C. for 20 minutes, read-out: IC50 against sEH
Method: The sEH inhibition assay was conducted in costar 384 well black NBS plates (Corning). The assay buffer used was 25 mM Tris pH 7.0 and 0.1 mg/ml BSA. The enzyme was purchased from Cayman Chemical (10011669) at a stock concentration of 15.625 μM. The Epoxy Fluor 7 substrate also from Cayman Chemical (10008610) was dissolved in DMSO at a concentration of 25.68 mM. This was further diluted ten-fold in DMSO to a concentration of 2.568 mM. Competition assays were performed with 5 μL Epoxy Fluor 7 diluted from DMSO stock to a final concentration of 5 nM, 5 μL of competitor (final concentration 10 μM-0.5 nM), and 10 μL enzyme (final concentration of 3 nM) in the assay buffer for a total volume of 20 μL. The compound was pre-incubated with enzyme for 15 min at room temperature prior to addition of substrate. The plate was read kinetically at excitation 330 nm and emission 465 nm wavelengths at 30° C. for 20 minutes on the Tecan M1000. The rate was calculated for the linear portion of the curves (2.5-12.5 minutes) and data fit to a sigmoidal curve.

IC50: 2 nM
SMILES: CN(CCn1cccn1)C(=O)c1ccc(-c2cccc(C(=O)NC3CCCCC3)c2)nc1 [Compound 1, N-(2-(1H-pyrazol-1-yl)ethyl)-6-(3-(cyclohexylcarbamoyl)phenyl)-N-methylnicotinamide]
